Earlier results as cited in patent publication US6622729B1, “Selective photodynamic treatment” (priority 1999, dated 2003).

Conditions: SnET2 administered in 0.5 and 1 mg/kg doses

In the case of `CCOC(=O)C1=Cc2c3nc(cc4nc(cc5[n-]c(cc6[n-]c2c(C)c6CC)c(C)c5CC)C(C)=C4CC)[C@@H](C)[C@]13CC.[Cl-].[Cl-].[Sn]` (racemic) [SnET2, tin ethyl etiopurpurin], the systemic toxicity is listed as “no apparent systemic toxicity”.
